“Also recorded” adds a separate entry of the source. Where two headings read alike, the source gives them in different places.
Legend:
[1] = target: hP2X3 (human purinergic P2X receptor subtype 3) (Homo sapiens (Human), UniProt P56373); experiment: FLIPR calcium assay, hP2X3 expressed in HEK293 cells; assay type: cell-based; conditions: read-out: P2X3 IC50
[2] = target: hP2X2/3 (heterodimeric receptors formed by human purinergic P2X receptors subtype 2 and subtype 3) (Homo sapiens (Human), UniProt P56373+Q9UBL9); experiment: FLIPR calcium assay, hP2X2/3 expressed in HEK293 cells (P2X2/3 receptor selectivity); assay type: cell-based; conditions: for IC50: HEK293 cells expressing hP2X2/3, agonist BZ-ATP 5 μM, unit inferred
[3] = system: Male Dunkin Hartley guinea pigs; experiment: Citric acid only cough model; assay type: in vivo, guinea pig; parameters: Mean cough latency: unit not given beside the values; conditions: for Number of coughs and cough latency (in words): compared with the blank vehicle or the condition before administration; for inhibition in vivo at 30 mg/kg: Cavia porcellus; for Mean number of coughs: 17.5% citric acid
Method: Male Dunkin Hartley guinea pigs (300-350 g) were placed in an animal atomization box, and then the door of the atomization box was closed while the ultrasonic atomizer (Guangdong Yuehua) was turned on. 17.5% citric acid gas was introduced into the atomization box at a maximum atomization rate (about 2 mL/min) for 20 s, and coughs of the animals within 10 min were continuously observed from the time of the start of atomization. During the 10-min observation, coughs of the animals were counted manually, and the number of coughs were judged according to cough postures of the guinea pigs, such as abdominal twitching, mouth opening, and head inclining downward abruptly. The number of coughs during the first 5 min and that during 10 min were recorded, and the cough latency of the guinea pigs, namely the time from the initiation of citric acid induction to the appearance of the first cough, was also recorded.

[4] = In vitro cytotoxicity assay, CCK-8 method; assay type: cell-based; conditions: human, HepG2 cells
In short: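 HepG2 cells at 50,000/well, grown to 80–90% confluence, exposed to compound dilutions or DMSO vehicle for 48 h at 37 °C. Viability by CCK-8 (1.5 h, 37 °C), absorbance at 450 nm; CC50 calculated.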

[5] = In vitro metabolic stability, human liver microsome; assay type: in vitro ADME; conditions: liver microsomes, 1 mg/mL liver microsome protein, 37° C., NA = essentially not metabolized, read-out: T1/2 in human liver microsome
In short: (§1)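 Compounds incubated with rat or human liver microsomes. At each time point reactions stopped with cold acetonitrile containing internal standards and centrifuged. Supernatants analysed by LC-MS to derive in vitro metabolic half-life.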

[6] = In vitro metabolic stability, rat liver microsome; assay type: in vitro ADME; conditions: liver microsomes, 1 mg/mL liver microsome protein, 37° C., NA = essentially not metabolized, read-out: T1/2 in rat liver microsome
In short: as §1

[7] = In vitro metabolic stability, guinea pig liver microsome; assay type: in vitro ADME; conditions: liver microsomes, 1 mg/mL liver microsome protein, 37° C., NA = essentially not metabolized, read-out: T1/2 in guinea pig liver microsome
In short: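 Test compound incubated at 37° C. in microsomes (1 mg/mL protein) with NADPH-regenerating system (1 mM NADP, 6 mM glucose 6-phosphate, 25 U/mL G6PDH, 5 mM MgCl2). Timed aliquots quenched in cold acetonitrile with internal standards; supernatant analysed by LC-MS to derive in vitro half-life.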

Male SD rats = experiment: Two-bottle dysgeusia test (quinine water vs normal water); assay type: in vivo, rat; conditions: for Quinine/tap water* 100%: rats, single intraperitoneal injection
Method: All drinking water bottles were removed out 20 h before the start of the formal experiment, and all the animals were deprived of water until the start of the experiment. In the experiment, all the animals were randomly grouped and then subjected to a single intraperitoneal injection of a test compound or a vehicle before water was resupplied. The administration time was determined according to the Tmax of the test compound. Then the animals were placed in separate cages, and two bottles of drinking water (one bottle of normal drinking water and one bottle of 0.3 mM quinine water) were provided.

[8] = system: Male Dunkin Hartley guinea pigs; experiment: ATP-citric acid cough model; assay type: in vivo, guinea pig; conditions: for Number of coughs / cough inhibition (in words): compared with the vehicle group
Method: Male Dunkin Hartley guinea pigs (300-400 g) were placed into a whole-body plethysmography box to adapt for 3-5 min, then ATP atomization is carried out for 2 min, and 3 min later, 5 min of citric acid atomization was followed, with all atomization rates being about 300 uL/min. The number of coughs and the cough latency of the animals within 10 min from the start of the citric acid atomization were recorded. During the 10-min observation, coughs of the animals were counted manually, and the coughs were judged according to cough postures of the guinea pigs, such as abdominal twitching, mouth opening, head inclining downward abruptly and the like. The number of coughs during 10 min were recorded, and the cough latency of the guinea pigs was also recorded.
The animals were divided into a vehicle group, a dextromethorphan (63 mg/kg) positive group, an AF-219 (30 mg/kg) positive group and Example 173 compound (3, 10, 30 mg/kg) administration groups, and all the compounds were orally administered. Except that dextromethorphan was administered 40 min before ATP-citric acid exposure, the remaining compounds were administered 2 h before ATP-citric acid exposure.

[9] = phase II clinical trial; cited from earlier work
[10] = 30 mg/kg, read-out: Cough inhibition rate Vs Baseline (%)
[11] = 30 mg/kg, read-out: Cough inhibition rate Vs Vehicle (%)
[12] = 20 mg/kg, compared with the blank vehicle
[13] = Table 8, 20 mg/kg, water intake within 15 min, 0.3 mM quinine
[14] = before administration (baseline of the group)
[15] = 30 mg/kg oral, 2 h before ATP-citric acid exposure
[16] = 63 mg/kg oral, 40 min before ATP-citric acid exposure

hP2X2/3 (heterodimeric receptors formed by human purinergic P2X receptors subtype 2 and subtype 3), sequence (P56373 whole entry): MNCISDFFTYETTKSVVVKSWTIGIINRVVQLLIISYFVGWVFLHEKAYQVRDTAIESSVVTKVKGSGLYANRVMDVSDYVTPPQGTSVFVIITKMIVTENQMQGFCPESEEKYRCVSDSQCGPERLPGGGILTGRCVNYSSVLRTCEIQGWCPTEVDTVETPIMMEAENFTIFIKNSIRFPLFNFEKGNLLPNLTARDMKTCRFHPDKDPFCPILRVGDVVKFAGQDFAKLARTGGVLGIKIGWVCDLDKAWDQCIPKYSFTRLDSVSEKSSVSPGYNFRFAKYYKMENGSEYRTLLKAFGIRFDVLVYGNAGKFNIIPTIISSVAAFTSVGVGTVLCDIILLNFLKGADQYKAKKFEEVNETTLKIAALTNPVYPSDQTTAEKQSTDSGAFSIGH
hP2X2/3 (heterodimeric receptors formed by human purinergic P2X receptors subtype 2 and subtype 3), sequence (Q9UBL9 whole entry): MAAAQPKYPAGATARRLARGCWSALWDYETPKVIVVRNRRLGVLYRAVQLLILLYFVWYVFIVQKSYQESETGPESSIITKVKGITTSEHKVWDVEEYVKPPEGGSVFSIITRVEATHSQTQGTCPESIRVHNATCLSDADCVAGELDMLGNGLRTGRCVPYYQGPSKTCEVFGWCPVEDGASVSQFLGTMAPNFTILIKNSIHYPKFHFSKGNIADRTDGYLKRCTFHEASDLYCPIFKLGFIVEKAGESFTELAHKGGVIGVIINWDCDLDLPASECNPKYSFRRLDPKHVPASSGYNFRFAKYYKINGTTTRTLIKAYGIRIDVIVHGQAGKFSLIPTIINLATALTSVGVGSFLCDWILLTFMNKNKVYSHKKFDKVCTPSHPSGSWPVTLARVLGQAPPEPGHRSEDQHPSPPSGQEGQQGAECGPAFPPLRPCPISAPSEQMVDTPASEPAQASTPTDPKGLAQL
hP2X3 (human purinergic P2X receptor subtype 3), sequence (P56373 whole entry): as the sequence (P56373 whole entry) above

| SMILES | IC50 [1] | Folds of selectivity [2] | IC50 [2] | Number of coughs and cough latency (in words) ([3]; 30 mg/kg) | inhibition in vivo at 30 mg/kg [3, 10] | inhibition in vivo at 30 mg/kg [3, 11] | CC50 at 48 h [4] | half-life [5] | half-life [6] | half-life [7] | Ratio of quinine/water intake (in words) (Male SD rats; [12]) | Quinine/tap water* 100% (Male SD rats; [13]) | Number of coughs during 10 min [8, 15] | Number of coughs / cough inhibition (in words) [8] | also measured |
| --- | --- | --- | --- | --- | --- | --- | --- | --- | --- | --- | --- | --- | --- | --- | --- |
| COC(=O)N1CCO[C@@H](Cc2c(-c3c(F)cc(NC(C)=O)cc3F)nc3cc(C)ccn23)C1 [Compound 2, methyl (S)-2-((2-(2,6-difluoro-4-acetamidophenyl)-7-methylimidazo[1,2-a]pyridin-3-yl)-methyl)morpholine-4-carboxylate] | < 10 nM | A (key: A: folds of selectivity >1000; B: 200< folds of selectivity ≤1000; C: folds of selectivity ≤200) | > 60 µM | can effectively reduce the number of coughs and prolong the cough latency | 38.7% | 34.2% | 124 µM | 895 min | 52.3 min | 95.3 min | almost unaffected | 5.49% |  |  |  |
| COC(=O)N1CCO[C@@H](Cc2c(-c3c(F)cc(S(N)(=O)=O)cc3F)nc3cc(Cl)ccn23)C1 [Compound 172, methyl (S)-2-((7-chloro-2-(2,6-difluoro-4-sulfamoylphenyl)imidazo[1,2-a]pyridin-3-yl)methyl)morpholine-4-carboxylate] |  | >85714 |  | can effectively reduce the number of coughs and prolong the cough latency |  |  | 57.1 µM | 824 min | 223 min | 410 min |  |  | 9.83 | stronger cough inhibition effect than positive compound 2 | Cough inhibition rate Vs Baseline (%) ([3]; 30 mg/kg): 50.6%; Cough inhibition rate Vs Vehicle (%) ([3]; 30 mg/kg): 43.9%; Mean cough latency ([3]; after administration, 30 mg/kg): 118.89; Mean number of coughs ([3]; after administration, 30 mg/kg): 9.67; Mean cough latency [3, 14]: 87.56; Mean number of coughs [3, 14]: 19.56; Number of coughs during 10 min ([8]; 3 mg/kg oral, 2 h before ATP-citric acid exposure): 14.42; Number of coughs during 10 min ([8]; 10 mg/kg oral, 2 h before ATP-citric acid exposure): 10.17; Number of coughs / cough inhibition (in words) ([8]; listed as compound 172): can significantly reduce the number of coughs; also recorded: inhibition in a dose-dependent manner; Ratio of quinine/water intake of rats (in words) (Male SD rats; 5 mg/kg, 10 mg/kg and 20 mg/kg, compared with the blank vehicle): almost unaffected; Quinine/tap water* 100% (Male SD rats; Table 9, 5 mg/kg): 7.05%; Quinine/tap water* 100% (Male SD rats; Table 9, 10 mg/kg): 7.41%; Quinine/tap water* 100% (Male SD rats; Table 9, 20 mg/kg): 8.66% |
| COc1cc(C(C)C)c(Oc2cnc(N)nc2N)cc1S(N)(=O)=O [AF-219, reference compound] |  |  |  |  |  |  |  |  |  |  |  |  | 11.42 |  | Cough inhibition ratio vs. vehicle (%) [8, 15]: 45.20%; Dysgeusia (in words) [9]: serious dysgeusia; Efficacy for refractory cough (in words) [9]: relatively good efficacy for refractory cough |
| COC(=O)N1CCO[C@@H](Cc2c(-c3c(F)cc(-c4ncc[nH]4)cc3F)nc3cc(C)ccn23)C1 [Compound 7, methyl (S)-2-((2-(2,6-difluoro-4-(1H-imidazol-2-yl)phenyl)-7-methylimidazo[1,2-a]pyridin-3-yl)methyl)morpholine-4-carboxylate] | < 10 nM | A (key: A: folds of selectivity >1000; B: 200< folds of selectivity ≤1000; C: folds of selectivity ≤200) | > 60 µM | can effectively reduce the number of coughs and prolong the cough latency | 42.6% | 38.3% | 195 µM | 128 min | 19.6 min | 20.9 min | almost unaffected | 6.91% |  |  |  |
| COc1ccc2c(c1)[C@]13CCCC[C@@H]1[C@H](C2)N(C)CC3 [Dextromethorphan, dextromethorphan, reference compound] |  |  |  |  |  |  |  |  |  |  |  |  |  | can significantly reduce the number of coughs | Cough inhibition ratio vs. vehicle (%) [8, 16]: 61.60%; Number of coughs during 10 min [8, 16]: 8.00 |

Source: US20240034729A9, “HETEROCYCLIC COMPOUND, INTERMEDIATE, PREPARATION METHOD THEREFOR AND APPLICATION THEREOF” (WUHAN LL SCIENCE AND TECHNOLOGY DEVELOPMENT CO., LTD., priority 2018, published 2024)
